Test results taken from article PMC8876800, “Neuropsychopharmacology of Emerging Drugs of Abuse: meta- and para-Halogen-Ring-Substituted α-PVP (“flakka”) Derivatives” (International Journal of Molecular Sciences, 2022).

What was measured:
hSERT [1] = molecular target: T1, hSERT (Homo sapiens, UniProt P31645); assay: Uptake inhibition assay, [3H]5-HT uptake in transfected HEK293 cells
hDAT [2] = molecular target: T2, hDAT (Homo sapiens, UniProt Q01959); assay: Transporter binding assay, [3H]WIN35,428 displacement in HEK293 membranes; design: expressed in transfected cells; conditions: for hDAT/hSERT Affinity Ratio: ratio of binding affinities at hDAT and hSERT
Procedure: (§1) To prepare membranes, HEK293 cells expressing monoamine transporters were harvested from 80–90% confluent dishes. In short, cells were washed with ice-cold phosphate buffered saline (PBS) twice. An extra 5 mL of PBS was added, and cells were mechanically detached using a plastic scraper and subsequently pelleted by centrifugation (400× g for 10 min at 4 °C). The resulting pellet was resuspended in hypotonic HME buffer (20 mM HEPES NaOH, 1 mM EDTA, 2 mM MgCl2; pH 7.4) and then subjected to two freeze-thaw cycles in liquid nitrogen and homogenization through sonication at 4 °C. Membranes were collected by centrifugation (40,000× g for 30 min at 4 °C) and resuspended in an appropriate volume of HME buffer. Protein concentration was determined using the Bio-Rad Protein Reagent (Bio Rad Laboratories, Hercules, CA, USA). Membrane preparations were kept at −80 °C.
(hSERT assay, final concentration 3 nM)) diluted in the corresponding reaction buffer, 15 µg of membranes in 100 µL of reaction buffer, and 125 µL of the tested drug dilution. […] This non-specific binding also allows subtracting the binding to other components such as the microfiber filters or membrane lipids from the total binding values. Incubation was performed for 1 h at 22 °C. […] The filters were then placed into vials and scintillation cocktail was added. The trapped radioactivity was quantified by liquid scintillation counting. Specific binding of each drug to the transporter was defined as the difference between total binding (binding buffer in absence of drug) and non-specific binding.
Data were expressed as mean ± SEM.

hDAT [3] = molecular target: T2, hDAT; assay: Uptake inhibition assay, [3H]MPP+ uptake in transfected HEK293 cells; conditions: for potency at inhibiting DAT relative to cocaine: [3H]MPP+ uptake at hDAT, vs cocaine
Swiss CD-1 mice [4] = assay: Conditioned place preference (CPP); format: in vivo; conditions: for CPP rewarding effects vs saline: highest dose 25 mg kg−1 i.p.
Procedure: (§2) Male Swiss CD-1 mice (Janvier, Le Genest, France) weighing 30–35 g (6–8 weeks old) were randomly assigned to an experimental group. The animals were housed (seven per cage) in polycarbonate cages with wood-derived bedding, in temperature-controlled conditions (22 ± 1 °C) under a 12 h light/dark cycle and had ad libitum access to food (standard laboratory diet, Panlab SL, Barcelona, Spain) and drinking water. All animal care and experimental protocols in this study were approved by the Animal Ethics Committee of the University of Barcelona under the supervision of the Autonomous Government of Catalonia and are in accordance with the guidelines of the European Community Council (2010/63/EU), as amended by Regulation (EU) 2019/1010. Efforts were made to minimize animal use and suffering. All studies involving animals comply with the ARRIVE guidelines. The animals were supervised before and throughout the study, immediately after injection, and during the behavioral experiment as well as 24 h after injection, and different parameters were visually evaluated for humane endpoints, such as abnormal posture, greater loss than 20%, self-mutilations, and strange vocalizations.
A place conditioning paradigm was used to determine the potential of the seven α-PVP derivatives to induce rewarding effects. The apparatus that is used for this test consists of two compartments, with differences in tactile and visual cues, communicated by a central corridor. Conditioned place preference (CPP) was performed as described by. Briefly, CPP was performed in three phases: preconditioning test and conditioning and post-conditioning test. During the preconditioning phase, mice had free access to both compartments during 15 min, and the time spent in each compartment was recorded and monitored (Smart 3.0 Panlab, Barcelona, Spain). During the conditioning phase (8 sessions), access to the corridor was closed, and mice received an i.p. injection of the corresponding α-PVP derivative and were immediately placed into one of the compartments for 20 min. The doses tested are in accordance with the ones used in the HLA experiment. On the alternative session, mice were placed for 20 min in the other compartment after receiving a saline i.p. injection. Mice in the control group received a saline injection in every session. The compartment and session in which mice received the drug was randomized. On the test day (post-conditioning phase), the same conditions as in the pre-conditioning phase applied. A preference score, expressed in seconds, was calculated as the difference between the time spent in the drug-paired compartment in the post-conditioning test minus the time spent in the preconditioning phase.
(§3) Data were expressed as mean ± SEM. […] High ratios indicate greater selectivity for DAT.

hSERT [5] = molecular target: T1, hSERT; assay: Transporter binding assay, [3H]imipramine displacement in HEK293 membranes; design: expressed in transfected cells
Procedure: as §1
This non-specific binding also allows subtracting the binding to other components such as the microfiber filters or membrane lipids from the total binding values. Incubation was performed for 1 h at 22 °C. […] The filters were then placed into vials and scintillation cocktail was added. The trapped radioactivity was quantified by liquid scintillation counting. Specific binding of each drug to the transporter was defined as the difference between total binding (binding buffer in absence of drug) and non-specific binding.
as §3

Swiss CD-1 mice [6] = assay: Open field test: center vs. periphery (anxiety-like behavior); format: in vivo; conditions: for acute anxiogenic effect (time in center of open field): 2.5, 10 and 25 mg kg−1 i.p., acute administration
Procedure: as §2
Open-field experiments are straight-forward tests that evaluate the animals’ activity in response to novelty (or anxiogenic environment) and pharmacological treatments. Each animal was placed into the center of an open field arena, with sufficient height to prevent the animals from escaping (25 cm length × 25 cm width × 40 cm height), and the time spent (in seconds) in the center (8 × 8 cm) or the periphery of the arena was monitored for 60 min (Smart 3.0 Panlab, Barcelona, Spain).
as §3

Swiss CD-1 mice [7] = assay: Horizontal locomotor activity (HLA); format: in vivo; conditions: for HLA vs saline group: 2.5 mg kg−1 i.p., distance travelled in 60 min; for duration of the increase in locomotor activity: medium dose 10 mg kg−1 i.p., time course
Procedure: as §2
A habituation phase was performed to reduce the novelty and stress associated with handling and injection. In this habituation phase, all mice received, for two consecutive days, an intraperitoneal (i.p.) saline injection and were then placed into a black Plexiglass open field arena (25 × 25 × 40 cm) under low-light conditions and white noise for 30 min. On the test day, the horizontal locomotor activity (HLA) produced by the tested cathinones was measured as described by, with minor modifications. Briefly, the animals received the corresponding i.p. injection (saline 5 mL kg^−1, 3-F-α-PVP, 4-F-α-PVP, 3-Cl-α-PVP, 4-Cl-α-PVP, 3,4-Cl2-α-PVP, 3-Br-α-PVP or 4-Br-α-PVP 2.5, 10 or 25 mg kg^−1 and were immediately placed in the open field arena with the same conditions of light and noise. HLA was video-monitored for 1 h, and their total travelled distance (in cm) was measured using a specific tracking software (Smart 3.0 Panlab, Barcelona, Spain).
as §3

T1 sequence (P31645 whole entry): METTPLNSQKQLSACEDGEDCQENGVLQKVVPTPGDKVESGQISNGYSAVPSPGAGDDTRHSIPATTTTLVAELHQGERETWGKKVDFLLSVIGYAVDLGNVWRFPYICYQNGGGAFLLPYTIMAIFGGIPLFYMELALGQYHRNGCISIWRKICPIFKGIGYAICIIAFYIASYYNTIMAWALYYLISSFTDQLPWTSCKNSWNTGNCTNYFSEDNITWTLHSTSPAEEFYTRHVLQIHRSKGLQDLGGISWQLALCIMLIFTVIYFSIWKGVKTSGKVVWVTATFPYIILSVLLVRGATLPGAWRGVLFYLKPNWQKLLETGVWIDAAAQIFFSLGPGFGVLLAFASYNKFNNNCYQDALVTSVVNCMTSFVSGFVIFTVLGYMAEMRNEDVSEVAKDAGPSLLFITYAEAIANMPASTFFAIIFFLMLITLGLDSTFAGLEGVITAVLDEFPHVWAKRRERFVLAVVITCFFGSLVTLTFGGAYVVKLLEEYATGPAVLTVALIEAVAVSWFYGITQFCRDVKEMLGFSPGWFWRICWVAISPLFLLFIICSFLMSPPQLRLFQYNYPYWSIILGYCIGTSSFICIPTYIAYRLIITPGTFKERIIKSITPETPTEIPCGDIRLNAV
T2 sequence (Q01959 whole entry): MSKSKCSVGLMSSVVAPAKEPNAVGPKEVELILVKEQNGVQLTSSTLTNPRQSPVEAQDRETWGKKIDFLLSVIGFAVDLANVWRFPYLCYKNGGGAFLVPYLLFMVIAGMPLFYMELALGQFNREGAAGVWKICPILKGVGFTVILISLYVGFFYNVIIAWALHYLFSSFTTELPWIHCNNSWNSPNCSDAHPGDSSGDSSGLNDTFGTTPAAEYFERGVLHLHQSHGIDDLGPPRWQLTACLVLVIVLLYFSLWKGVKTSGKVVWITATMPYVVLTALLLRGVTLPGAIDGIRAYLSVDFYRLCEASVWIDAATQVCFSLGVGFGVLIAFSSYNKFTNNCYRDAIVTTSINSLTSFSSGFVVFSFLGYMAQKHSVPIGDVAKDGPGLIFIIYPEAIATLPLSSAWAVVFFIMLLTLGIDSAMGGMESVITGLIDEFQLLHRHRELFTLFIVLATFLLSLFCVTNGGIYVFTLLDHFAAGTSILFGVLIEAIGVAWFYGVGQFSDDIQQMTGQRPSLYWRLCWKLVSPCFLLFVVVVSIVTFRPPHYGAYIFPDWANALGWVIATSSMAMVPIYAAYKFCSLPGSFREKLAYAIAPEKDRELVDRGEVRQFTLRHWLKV

Row | SMILES | IC50 (hSERT [1]) [µM] | Ki (hDAT [2]) [µM] | hDAT/hSERT Affinity Ratio (hDAT [2]) | IC50 (hDAT [3]) [µM] | hDAT/hSERT Inhibition Ratio (hDAT [3]) | CPP rewarding effects vs saline (Swiss CD-1 mice [4]) | Ki (hSERT [5]) [µM] | acute anxiogenic effect (time in center of open field) (Swiss CD-1 mice [6]) | potency at inhibiting DAT relative to cocaine (hDAT [3]) [fold] | CPP rewarding properties vs saline (Swiss CD-1 mice [4]; lowest dose 2.5 mg kg−1 i.p.) | HLA vs saline group (Swiss CD-1 mice [7]) | HLA dose-response at the highest dose (Swiss CD-1 mice [7]; 25 mg kg−1 i.p.) | time in center of open field at the lowest dose (Swiss CD-1 mice [6]; 2.5 mg kg−1 i.p.) | duration of the increase in locomotor activity (Swiss CD-1 mice [7]) [min] | time in center of open field at the highest dose (Swiss CD-1 mice [6]; 25 mg kg−1 i.p., effect only at this dose)
1 | CCCC(C(=O)c1ccc(Cl)c(Cl)c1)N1CCCC1 (stereo not drawn) [3,4-Cl-α-PVP, 3,4-Dichloro-α-Pyrrolidinopentiophenone] | 12.7 | 0.011 | 462 | 0.266 | 47 | significant increase of the rewarding effects | 4.99 | anxiogenic effect | – | – | – | – | – | – | –
2 | CCCC(C(=O)c1cccc(Br)c1)N1CCCC1 (stereo not drawn) [3-Br-α-PVP, 3-Bromo-α-Pyrrolidinopentiophenone] | 40 | 0.012 | 470 | 0.117 | 341 | significant increase of the rewarding effects | 5.6 | anxiogenic effect | 2 | did not show rewarding properties | – | – | – | – | –
3 | CCCC(C(=O)c1cccc(Cl)c1)N1CCCC1 (stereo not drawn) [3-Cl-α-PVP, 3-Chloro-α-Pyrrolidinopentiophenone] | 33.3 | 0.013 | 1234 | 0.349 | 95 | did not induce significant rewarding effects | 16.4 | anxiogenic effect | – | – | significant effect | ceiling effect | anxiogenic effects | – | –
4 | CCCC(C(=O)c1cccc(F)c1)N1CCCC1 (stereo not drawn) [3-F-α-PVP, 3-Fluoro-α-Pyrrolidinopentiophenone] | > 100 | 0.014 | 4540 | 0.132 | 1819 | – | 63.5 | anxiogenic effect | 2 | – | significant effect | – | – | – | –
5 | CCCC(C(=O)c1ccc(Br)cc1)N1CCCC1 (stereo not drawn) [4-Br-α-PVP, 4-Bromo-α-Pyrrolidinopentiophenone] | 23.1 | 0.024 | 52 | 0.156 | 148 | significant increase of the rewarding effects | 1.25 | did not cause acute anxiogenic effects | 2 | – | – | – | – | < 60 | –
6 | CCCC(C(=O)c1ccc(Cl)cc1)N1CCCC1 (stereo not drawn) [4-Cl-α-PVP, 4-Chloro-α-Pyrrolidinopentiophenone] | 15.2 | 0.016 | 478 | 0.391 | 38 | did not induce significant rewarding effects | 7.9 | anxiogenic effect | – | – | – | – | – | < 60 | –
7 | CCCC(C(=O)c1ccc(F)cc1)N1CCCC1 (stereo not drawn) [4-F-α-PVP, 4-Fluoro-α-Pyrrolidinopentiophenone] | > 100 | 0.049 | 1173 | 0.154 | 1366 | significant increase of the rewarding effects | 57.9 | anxiogenic effect | 2 | – | – | – | – | – | decrease in the time spent in the center
8 | CCCC(C(=O)c1ccccc1)N1CCCC1 (stereo not drawn) [α-PVP, α-Pyrrolidinopentiophenone] | > 100 | 0.017 | 8514 | 0.129 | 3418 | – | > 100 | – | – | – | – | – | – | – | –
